Tests used:
[1] = tested on: P. falciparum Cam3.II lines; assay: Isobologram analyses (fixed-ratio drug combinations); assay type: cell-based, Plasmodium falciparum
Protocol: Assays were performed with fixed ratios of drug combinations (1:0, 4:1, 2:1, 1:1, 1:2, 1:4, and 0:1), tested in duplicate. Combinations were prepared from 16×IC50 drug stocks and tested across a range of two-fold dilutions. Assays were conducted with asynchronous cultures exposed for 72 hr or with tightly synchronized rings or trophozoites (tested at 0–3 hr or 24–27 hr post-invasion, respectively) exposed for 3 hr. Post-pulse drug washouts were conducted as described above for in vitro determination of IC50 levels. IC50 values were derived for each compound tested alone, and fractional IC50 (FIC50) values were determined for each compound tested in combination (FIC50 = […]) and plotted for each drug combination. For each combination, the mean of the sums of FIC50 values at each combination (mean ΣFIC50) was also calculated and the results illustrated using heat maps.

[2] = tested on: P. falciparum Cam3.II lines; assay: Stage-specificity 1 hr pulse survival assay; assay type: cell-based, Plasmodium falciparum; conditions: 150 nM
Protocol: All stage-specificity tests were concluded 72 hr from the start of the experiment. Assays were performed in duplicate. Parasites were prepared by synchronizing ring stages with 5% D-Sorbitol and later isolating the schizonts over a 75% Percoll gradient. These schizonts were allowed to reinvade fresh RBCs at 2% hematocrit. Parasites were tested as purified schizonts, early rings, mid rings, late rings or trophozoites (~45–47, 0–3, 10–13, 18–21 and 24–27 hr post-invasion, respectively), and exposed to drug or DMSO vehicle control in 1 mL volumes. Parasites were seeded at 0.5% parasitemia and 1% hematocrit in a 48-well plate.
Drug-treated parasites were washed as previously described for the RSA0-3h. Briefly, 1 mL cultures were transferred to 15 mL conical tubes, centrifuged at 800×g for 5 minutes to pellet cells, and the culture medium containing drug was carefully removed. Cells were subsequently resuspended in 10 mL drug-free medium, centrifuged, and the wash medium removed. Finally, cells were resuspended in 1 mL of fresh drug-free medium, transferred to a new well, and returned to standard culture conditions for the duration of the assay. Parasitemias were measured by flow cytometry and the survival of drug-treated parasites was calculated as a percent of DMSO-treated control cultures.

Plasmodium parasites = conditions: cited from earlier work

C[C@H]1[C@@H](O)O[C@@H]2O[C@@]3(C)CC[C@H]4[C@H](C)CC[C@@H]1[C@@]24OO3 [DHA, dihydroartemisinin]
Interaction with WLW (isobologram) ([1]; asynchronous parasites, early rings and trophozoites, Cam3.II K13WT and K13C580Y): synergy | Mean of the sums of FIC50 (mean ΣFIC50) ([1]; combined with WLL, Asynchronous, 72 hr, Cam3.II K13WT): 0.89 | Mean of the sums of FIC50 (mean ΣFIC50) ([1]; combined with WLL, Rings, 3 hr exposure, Cam3.II K13C580Y): 0.77 | Mean of the sums of FIC50 (mean ΣFIC50) ([1]; combined with WLL, Rings, 3 hr exposure, Cam3.II K13WT): 0.69 | Mean of the sums of FIC50 (mean ΣFIC50) ([1]; combined with WLL, Trophozoites, 3 hr exposure, Cam3.II K13C580Y): 0.68 | Mean of the sums of FIC50 (mean ΣFIC50) ([1]; combined with WLL, Trophozoites, 3 hr exposure, Cam3.II K13WT): 0.70 | Mean of the sums of FIC50 (mean ΣFIC50) ([1]; combined with WLW, Asynchronous, 72 hr, Cam3.II K13C580Y): 0.71 | Mean of the sums of FIC50 (mean ΣFIC50) ([1]; combined with WLW, Asynchronous, 72 hr, Cam3.II K13WT): 0.66 | Mean of the sums of FIC50 (mean ΣFIC50) ([1]; combined with WLW, Rings, 3 hr exposure, Cam3.II K13C580Y): 0.44 | Mean of the sums of FIC50 (mean ΣFIC50) ([1]; combined with WLW, Rings, 3 hr exposure, Cam3.II K13WT): 0.43 | Mean of the sums of FIC50 (mean ΣFIC50) ([1]; combined with WLW, Trophozoites, 3 hr exposure, Cam3.II K13C580Y): 0.73 | Mean of the sums of FIC50 (mean ΣFIC50) ([1]; combined with WLW, Trophozoites, 3 hr exposure, Cam3.II K13WT): 0.69 | Interaction with WLL (isobologram) ([1]; early rings and trophozoites): Synergy | Mean percent survival ([2]; Early rings (0–3 hpi), Cam3.II K13C580Y): 57.9 ± 5.6% | Mean percent survival ([2]; Early rings (0–3 hpi), Cam3.II K13WT): 46.8 ± 10.6% | Mean percent survival ([2]; Late rings (18–21 hpi), Cam3.II K13C580Y): 13.5 ± 3.1% | Mean percent survival ([2]; Late rings (18–21 hpi), Cam3.II K13WT): 18.9 ± 5.6% | Mean percent survival ([2]; Mid rings (10–13 hpi), Cam3.II K13C580Y): 29.1 ± 3.4% | Mean percent survival ([2]; Mid rings (10–13 hpi), Cam3.II K13WT): 35.4 ± 2.7% | Mean percent survival ([2]; Schizonts (45–48 hpi), Cam3.II K13C580Y): 71.9 ± 13.6% | Mean percent survival ([2]; Schizonts (45–48 hpi), Cam3.II K13WT): 59.0 ± 5.3% | Mean percent survival ([2]; Trophs (24–27 hpi), Cam3.II K13C580Y): 4.1 ± 0.6% | Mean percent survival ([2]; Trophs (24–27 hpi), Cam3.II K13WT): 2.3 ± 0.1%

CC(C)(C)NC(=O)C[C@H](NC(=O)CCc1ccccc1)C(=O)NCCNC(=O)c1cccc(-c2ccccc2)c1 [PKS21004]
Resistance of selected parasites, fold increase over the sensitive parent (Plasmodium parasites): > 130 fold
